≈ marks a conversion by molar mass, not a printed value.
Experiments:
[1] = system: E. faecium OC3312; test: MIC, microdilution broth method (NCCLS); assay type: cell-based; details: E. faecium OC3312 (vancomycin-resistant enterococcus); 35° C., 16-20 hours; read-out: MIC (μg/mL) in Test Strains E. faecium OC3312
Method: (§1) Minimal inhibitory concentration (MIC) has been an indicator of in vitro antibacterial activity widely used in the art. The in vitro antimicrobial activity of the compounds was determined by the microdilution broth method following the test method from the National Committee for Laboratory Standards (NCCLS). This method is described in the NCCLS Document M7-A4, Vol. 17, No. 2, “Methods for Dilution Antimicrobial Susceptibility Test for Bacteria that Grow Aerobically—Fourth Edition”, which is incorporated herein by reference.
(§2) In this method two-fold serial dilutions of drug in cation adjusted Mueller-Hinton broth are added to wells in microdilution trays. The test organisms are prepared by adjusting the turbidity of actively growing broth cultures so that the final concentration of test organism after it is added to the wells is approximately 5×10^4 CFU/well.
(§3) Following inoculation of the microdilution trays, the trays are incubated at 35° C. for 16-20 hours and then read. […] The amount of growth in the wells containing the test compound is compared with the amount of growth in the growth-control wells (no test compound) used in each tray. As set forth in Table 1, some compounds of the present invention were tested against a variety of pathogenic bacteria resulting in a range of activities, from 1 to >128 μg/mL depending on the organism tested. S. aureus OC2878 is a MRSA and E. faecium OC3312 is a vancomycin-resistant enterococcus.

[2] = system: S. aureus OC2878; test: MIC, microdilution broth method (NCCLS); assay type: cell-based; details: Staphylococcus aureus; S. aureus OC2878 (MRSA); 35° C., 16-20 hours; read-out: MIC (μg/mL) in Test Strains S. aureus OC2878
Method: as §1, §2, §3

[3] = system: S. aureus OC4172; test: MIC, microdilution broth method (NCCLS); assay type: cell-based; details: Staphylococcus aureus, 35° C., 16-20 hours, read-out: MIC (μg/mL) in Test Strains S. aureus OC4172
Method: as §1, §2, §3

Row | Structure (SMILES) | MIC [1] | MIC [2] | MIC [3] | melting point
1 | O=C1O[C@@H](CO)CN1c1ccc(N2CCc3ccccc3C2)c(F)c1 [Compound 1, 2-oxazolidinone, 3-[4-(3,4-dihydro-2(1H)-isoquinolinyl)-3-fluorophenyl]-5-(hydroxymethyl)-, (5R)-] | > 128 µg/mL | 32 µg/mL (≈ 93.5 µM) | 128 µg/mL (≈ 374 µM) | –
2 | CC(=O)NC[C@H]1CN(c2ccc(N3CCc4ccccc4C3)c(F)c2)C(=O)O1 [Compound 2, acetamide, N-[[(5S)-3-[4-(3,4-dihydro-2(1H)-isoquinolinyl)-3-fluorophenyl]-2-oxo-5-oxazolidinyl]methyl]-] | 8 µg/mL (≈ 20.9 µM) | 4 µg/mL (≈ 10.4 µM) | 8 µg/mL (≈ 20.9 µM) | 131 to 134 °C
3 | CC(=O)NC[C@H]1CN(c2ccc(N3CCc4ccncc4C3)c(F)c2)C(=O)O1 [Compound 3, acetamide, N-[[(5S)-3-[4-(3,4-dihydro-2,7-naphthyridin-2(1H)-yl)-3-fluorophenyl]-2-oxo-5-oxazolidinyl]methyl]-] | 8 µg/mL (≈ 20.8 µM) | 4 µg/mL (≈ 10.4 µM) | 8 µg/mL (≈ 20.8 µM) | 141 to 144 °C (dec.)
4 | CC(=O)NC[C@H]1CN(c2ccc(N3CCc4cnccc4C3=O)c(F)c2)C(=O)O1 [Compound 4, acetamide, N-[[(5S)-3-[4-(3,4-dihydro-1-oxo-2,6-naphthyridin-2(1H)-yl)-3-fluorophenyl]-2-oxo-5-oxazolidinyl]methyl]-] | 32 µg/mL (≈ 80.3 µM) | 16 µg/mL (≈ 40.2 µM) | 32 µg/mL (≈ 80.3 µM) | –
5 | CC(=O)NC[C@H]1CN(c2ccc(N3CCc4ncncc4C3)c(F)c2)C(=O)O1 [Compound 5, acetamide, N-[[(5S)-3-[4-(7,8-dihydropyrido[4,3-d]pyrimidin-6(5H)-yl)-3-fluorophenyl]-2-oxo-5-oxazolidinyl]methyl]-] | 8 µg/mL (≈ 20.8 µM) | 2 µg/mL (≈ 5.19 µM) | 4 µg/mL (≈ 10.4 µM) | –
6 | CC(=O)NC[C@H]1CN(c2ccc(N3CCc4nc(C)ncc4C3)c(F)c2)C(=O)O1 [Compound 6, acetamide, N-[[(5S)-3-[4-(7,8-dihydro-2-methylpyrido[4,3-d]pyrimidin-6(5H)-yl)-3-fluorophenyl]-2-oxo-5-oxazolidinyl]methyl]-] | 8 µg/mL (≈ 20 µM) | 2 µg/mL (≈ 5.01 µM) | 4 µg/mL (≈ 10 µM) | –
7 | CC(=O)NC[C@H]1CN(c2ccc(N3CCc4nc(-c5csc(C)n5)ncc4C3)c(F)c2)C(=O)O1 [Compound 7, acetamide, N-[[(5S)-3-[4-[7,8-dihydro-2-(2-methyl-4-thiazolyl)pyrido[4,3-d]pyrimidin-6(5H)-yl]-3-fluorophenyl]-2-oxo-5-oxazolidinyl]methyl]-] | 8 µg/mL (≈ 16.6 µM) | 8 µg/mL (≈ 16.6 µM) | 8 µg/mL (≈ 16.6 µM) | –
8 | CC(=O)NC[C@H]1CN(c2ccc(N3CCc4nc(-c5ccncc5)ncc4C3)c(F)c2)C(=O)O1 [Compound 8, acetamide, N-[[(5S)-3-[4-[7,8-dihydro-2-(4-pyridinyl)pyrido[4,3-d]pyrimidin-6(5H)-yl]-3-fluorophenyl]-2-oxo-5-oxazolidinyl]methyl]-] | 4 µg/mL (≈ 8.65 µM) | 2 µg/mL (≈ 4.32 µM) | 2 µg/mL (≈ 4.32 µM) | –
9 | CC(=O)NC[C@H]1CN(c2ccc(N3CCc4nc(-c5cnccn5)ncc4C3)c(F)c2)C(=O)O1 [Compound 9, acetamide, N-[[(5S)-3-[4-(7,8-dihydro-2-pyrazinylpyrido[4,3-d]pyrimidin-6(5H)-yl)-3-fluorophenyl]-2-oxo-5-oxazolidinyl]methyl]-] | 8 µg/mL (≈ 17.3 µM) | 4 µg/mL (≈ 8.63 µM) | 4 µg/mL (≈ 8.63 µM) | –
10 | CC(=O)NC[C@H]1CN(c2ccc(N3CCc4[nH]ncc4C3)c(F)c2)C(=O)O1 [Compound 10, acetamide, N-[[(5S)-3-[4-(1,4,6,7-tetrahydro-5H-pyrazolo[4,3-c]pyridin-5-yl)-3-fluorophenyl]-2-oxo-5-oxazolidinyl]methyl]-] | 16 µg/mL (≈ 42.9 µM) | 8 µg/mL (≈ 21.4 µM) | 8 µg/mL (≈ 21.4 µM) | –
11 | CC(=O)NC[C@H]1CN(c2ccc(N3CCc4c(cnn4C)C3)c(F)c2)C(=O)O1 [Compound 11, acetamide, N-[[(5S)-3-[4-(1,4,6,7-tetrahydro-1-methyl-5H-pyrazolo[4,3-c]pyridin-5-yl)-3-fluorophenyl]-2-oxo-5-oxazolidinyl]methyl]-] | 16 µg/mL (≈ 41.3 µM) | 8 µg/mL (≈ 20.6 µM) | 16 µg/mL (≈ 41.3 µM) | –

— US6951863B2, “Pyridoarylphenly oxazolidinone antibacterials, and related compositions and methods” (Ortho-McNeil Pharmaceutical, Inc., priority 2001, dated 2005)
